Values of other authors as cited in publication PMC11956011, “An Amazing 30-Year Journey around the DABO Family: A Medicinal Chemistry Lesson on a Versatile Class of Non-nucleoside HIV-1 Reverse Transcriptase Inhibitors” (Journal of Medicinal Chemistry, 2025).
Values after ≈ are worked out from the molar mass of the structure shown. Like-named read-outs stand apart in the source and are kept apart here.

Experiments:
[1] = tested on: Y181C HIV-1 mutant strain; conditions: for Fold-resistance Y181C (EC50): Fig 10, in brackets
[2] = tested on: E138K HIV-1 mutant strain
HIV-1 [3] = conditions: for SI: Fig 10
Vero cells = tested on: Vero cells; design: method as in doi:10.1016/0223-5234(92)90009-P; conditions: Fig 2
C8166 cells = tested on: C8166 cells; design: method as in doi:10.1016/0223-5234(92)90009-P; conditions: Fig 2
[4] = tested on: HIV-1 RT (WT, recombinant)
HIV-1 [5] = tested on: HIV-1; design: method as in PMID 8602869; conditions: read-out: syncytia reduction assay in MT-2-infected cells IC50
HIV-1 [6] = tested on: HIV-1; design: method as in PMID 8602869; conditions: day 3 and 4 p.i.; read-out: p24 inhibition in PBMC-infected cells IC50
HIV-1IIIB = conditions: for ED50: HIV-1 IIIB: Fig 4
N119 (Y181C mutant) = conditions: for ED50: HIV-1 119: Fig 4; for Fold-resistance HIV-1 119 (ED50): Fig 4, in parentheses; for EC50: Fig 9
mock-infected cells = conditions: for CD50: Fig 4
HIV-1 NL4-3 wt = conditions: read-out: EC50: NL4-3 wt
[7] = tested on: K103N HIV-1 mutant strain; conditions: for Fold-resistance K103N (EC50): Fig 10, in brackets
[8] = tested on: Y188L HIV-1 mutant strain
[9] = tested on: IRLL98 clinical isolate (K101Q, Y181C, G190A); conditions: Fig 9
Y181I HIV-1 RT = conditions: for Fold-resistance Y181I RT (ID50): Fig 10, in brackets
[10] = tested on: EFV^R (K103R + V179D + P225H mutant); conditions: Fig 9
A17 (Y181C+K103N) = conditions: Fig 9
L100I HIV-1 RT = conditions: for ID50: L100I: Fig 10; for Fold-resistance L100I RT (ID50): Fig 10, in brackets
[11] = tested on: clinical isolates KM018, TC-2, and WAN; conditions: read-out: EC50 against clinical isolates KM018, TC-2, and WAN
[12] = more water-soluble
[13] = rats
HBV = conditions: HBV-infected cells; read-out: HBV DNA IC50
malaria = tested on: malaria; design: method as in PMID 31191911
[14] = tested on: colon carcinoma HT-29 cells
[15] = tested on: non-small-cell lung cancer HOP-92 cells; design: method as in PMID 21849221; conditions: at 10 μM

CCc1c(Cc2c(F)cccc2Cl)nc(SCC(=O)Nc2ccccc2)[nH]c1=O [A compound similar to 105–108]
EC50 [1]: 2130 nM
EC50 [2]: 2030 nM
EC50 (HIV-1 [3]; read-out: EC50 against wild-type): 190 nM

CCCCOc1nc(Cc2ccc(OC)cc2)cc(=O)[nH]1 [compound 5]
TD50 Vero (Vero cells): 100 µg/mL
TD50 C8166 (C8166 cells): 100 µg/mL

Nc1cc(Cl)nc(SCc2ccccc2)n1 [compound 19, 4-amino-2-(benzylthio)-6-chloropyrimidine]
IC50 ([4]; Fig 4, read-out: RT assay IC50): 50000 to 80000 nM
IC50 (HIV-1 [5]): 400 to 4000 nM
IC50 (HIV-1 [6]): 100 to 1000 nM
cytotoxicity in MT-2-infected cells (MT-2 cells): > 16 µM
cytotoxicity in PBMC-infected cells (PBMC): > 16 µM

CCc1c(Cc2cc(C)cc(C)c2)n2c(nc1=O)SCCOC2 [compound 25]
ED50: HIV-1 IIIB (HIV-1IIIB): 600 nM
ED50: HIV-1 119 (N119 (Y181C mutant)): 19000 nM
Fold-resistance HIV-1 119 (ED50) (N119 (Y181C mutant)): 32
CD50 (mock-infected cells): > 100 µM

CCc1c(Cc2cc(C)cc(C)c2)nc2n(c1=O)COCCS2 [compound 26]
ED50: HIV-1 IIIB (HIV-1IIIB): 1600 nM
ED50: HIV-1 119 (N119 (Y181C mutant)): 6300 nM
Fold-resistance HIV-1 119 (ED50) (N119 (Y181C mutant)): 4
CD50 (mock-infected cells): > 100 µM

COc1ccc(CSc2nc(Cc3c(Cl)cccc3Cl)c(C)c(=O)[nH]2)cc1 [compound 76]
EC50 (HIV-1 NL4-3 wt; Fig 9): 7 nM
EC50 ([7]; Fig 9): 4700 nM
EC50 ([8]; Fig 9): > 32000 nM
EC50 [9]: 47 nM
ID50: WT ([4]; Fig 9): 4 nM
ID50: Y181I (Y181I HIV-1 RT; Fig 9): 150000 nM
CC50 (mock-infected cells; Fig 9): 32000 nM

COc1ccc(CCSc2nc(Cc3c(Cl)cccc3Cl)c(C)c(=O)[nH]2)cc1 [compound 77]
EC50 (HIV-1 NL4-3 wt; Fig 9): < 0.14 nM
EC50 ([7]; Fig 9): 870 nM
EC50 ([8]; Fig 9): 6900 nM
EC50 [9]: 0.22 nM
ID50: WT ([4]; Fig 9): 26 nM
ID50: Y181I (Y181I HIV-1 RT; Fig 9): 1500 nM
CC50 (mock-infected cells; Fig 9): > 57000 nM

COc1ccc(CCCSc2nc(O)c(C)c(Cc3c(Cl)cccc3Cl)n2)cc1 [compound 78]
EC50 (HIV-1 NL4-3 wt; Fig 9): 0.44 nM
EC50 ([7]; Fig 9): > 1000 nM
EC50 ([8]; Fig 9): > 1000 nM
EC50 [9]: 110 nM
ID50: WT ([4]; Fig 9): 37 nM
ID50: Y181I (Y181I HIV-1 RT; Fig 9): 300 nM
CC50 (mock-infected cells; Fig 9): 1000 nM

COc1ccc(CSc2nc(O)c(C)c(Cc3c(F)cccc3F)n2)cc1 [compound 79]
EC50 (HIV-1 NL4-3 wt; Fig 9): 26 nM
EC50 ([7]; Fig 9): 690 nM
EC50 ([8]; Fig 9): 10000 nM
EC50 [9]: 690 nM
ID50: WT ([4]; Fig 9): 7 nM
CC50 (mock-infected cells; Fig 9): > 64000 nM

Cc1c(O)nc(Sc2ccccc2)nc1Cc1c(F)cccc1F [compound 80]
EC50 (HIV-1 NL4-3 wt; Fig 9): 90 nM
EC50 ([7]; Fig 9): 42500 nM
EC50 ([8]; Fig 9): > 72700 nM
EC50 [9]: 16700 nM
ID50: WT ([4]; Fig 9): 32000 nM
ID50: Y181I (Y181I HIV-1 RT; Fig 9): > 400000 nM
CC50 (mock-infected cells; Fig 9): > 72700 nM

Cc1c(O)nc(Sc2ccc(Cl)cc2)nc1Cc1c(F)cccc1F [compound 81]
EC50 (HIV-1 NL4-3 wt; Fig 9): 100 nM
EC50 ([7]; Fig 9): 8010 nM
EC50 ([8]; Fig 9): > 66100 nM
EC50 [9]: > 66100 nM
ID50: WT ([4]; Fig 9): 22000 nM
ID50: Y181I (Y181I HIV-1 RT; Fig 9): > 400000 nM
CC50 (mock-infected cells; Fig 9): > 66100 nM

COc1ccncc1Sc1nc(Cc2c(Cl)cccc2Cl)c(C)c(=O)[nH]1 [compound 82]
EC50 (HIV-1 NL4-3 wt; Fig 9): 2720 nM
EC50 ([7]; Fig 9): > 61300 nM
EC50 ([1]; Fig 9): 6520 nM
EC50 ([8]; Fig 9): > 61300 nM
EC50 [9]: 8680 nM
ID50: WT ([4]; Fig 9): 3500 nM
ID50: Y181I (Y181I HIV-1 RT; Fig 9): > 400000 nM
CC50 (mock-infected cells; Fig 9): > 61300 nM

Cc1cc(C)cc(Cc2nc(Sc3ccccc3)[nH]c(=O)c2C)c1 [compound 83]
EC50 [10]: 80000 nM
EC50 (N119 (Y181C mutant)): 5000 nM
EC50 (A17 (Y181C+K103N)): > 100000 nM
EC50 (HIV-1 [3]; read-out: EC50: HIV-1 wt, Fig 9): 1700 nM
CC50 (mock-infected cells; Fig 9): > 100000 nM

COc1cccc(Sc2nc(Cc3cc(C)cc(C)c3)c(C)c(=O)[nH]2)c1 [compound 84]
EC50 [10]: 100000 nM
EC50 (N119 (Y181C mutant)): 2000 nM
EC50 (A17 (Y181C+K103N)): > 100000 nM
CC50 (mock-infected cells; Fig 9): > 100000 nM

Cc1cc(C)cc(Cc2nc(Sc3cccnc3)[nH]c(=O)c2C)c1 [compound 85]
EC50 [10]: 55000 nM
EC50 (N119 (Y181C mutant)): 8000 nM
EC50 (A17 (Y181C+K103N)): > 55000 nM

Cc1cc(C)cc(Cc2nc(Sc3cccc4ccccc34)[nH]c(=O)c2C)c1 [compound 86]
EC50 [10]: 80000 nM
EC50 (N119 (Y181C mutant)): 5000 nM
EC50 (A17 (Y181C+K103N)): > 100000 nM
CC50 (mock-infected cells; Fig 9): > 100000 nM

CCc1c(Cc2c(F)cccc2Cl)nc(SCC(=O)c2ccc(F)cc2)[nH]c1=O [compound 103]
EC50 (HIV-1 NL4-3 wt; Fig 10): 5 nM
EC50 ([7]; Fig 10): 4140 nM
Fold-resistance K103N (EC50) [7]: 828
EC50 ([1]; Fig 10): 1930 nM
Fold-resistance Y181C (EC50) [1]: 386
EC50 ([8]; Fig 10): > 57000 nM
ID50: WT ([4]; Fig 10): 33 nM
ID50: Y181I (Y181I HIV-1 RT; Fig 10): 380 nM
Fold-resistance Y181I RT (ID50) (Y181I HIV-1 RT): 12
ID50: L100I (L100I HIV-1 RT): 5600 nM
Fold-resistance L100I RT (ID50) (L100I HIV-1 RT): 170
SI (HIV-1 [3]): > 11400
CC50 (mock-infected cells; Fig 10): > 57000 nM

CCc1c(Cc2c(F)cccc2F)nc(SCC(=O)c2ccccc2)[nH]c1=O [compound 104]
EC50 (HIV-1 NL4-3 wt; Fig 10): 12 nM
EC50 ([7]; Fig 10): 1300 nM
Fold-resistance K103N (EC50) [7]: 108
EC50 ([1]; Fig 10): 200 nM
Fold-resistance Y181C (EC50) [1]: 17
EC50 ([8]; Fig 10): > 56000 nM
ID50: WT ([4]; Fig 10): 43 nM
ID50: Y181I (Y181I HIV-1 RT; Fig 10): 820 nM
Fold-resistance Y181I RT (ID50) (Y181I HIV-1 RT): 19
ID50: L100I (L100I HIV-1 RT): 5400 nM
Fold-resistance L100I RT (ID50) (L100I HIV-1 RT): 126
SI (HIV-1 [3]): 4667
CC50 (mock-infected cells; Fig 10): 56000 nM

CCc1c(CC2CCCCC2)nc(SCC(=O)c2ccccc2)[nH]c1=O [compound 177]
EC50 (HIV-1IIIB; read-out: EC50 anti-HIV-1 activity, further studies): 2.4 nM
EC50 (HIV-1 [3]; read-out: EC50 anti-HIV-1 activity, first report, C8166 cells): 0.012 nM
EC50 (HIV-1 [3]; read-out: EC50 vs WT HIV-1): 200 nM
EC50 [11]: 8.74 to 41.8 nM

CCc1c(CC2CCCCC2)nc(SCC(=O)c2ccc(OP(=O)(OC)OC)cc2)[nH]c1=O [compound 179]
Water solubility with respect to 177 [12]: 17 fold
Potency against WT HIV-1 with respect to 177 (HIV-1 [3]; more potent): 20 fold
Cytotoxicity with respect to 177 (mock-infected cells; more cytotoxic): 4.5 times

CCc1c(CC2CCCCC2)nc(SCc2cc(-c3ccc(O)cc3)[nH]n2)[nH]c1=O [compound 180]
pharmacokinetic properties and bioavailability (in words) [13]: acceptable

CCc1c(CC2CCCCC2)nc(SCc2cc(-c3ccc(SC)cc3)[nH]n2)[nH]c1=O [compound 181]
pharmacokinetic properties and bioavailability (in words) [13]: acceptable

O=c1[nH]c(SC2O[C@H](CO)[C@H](O)[C@@H](O)[C@@H]2O)nc(Cc2ccccc2)c1Cc1ccccc1 (stereo partly drawn) [compound 185]
IC50 (HBV): 200 nM

O=c1[nH]c(SC2OC[C@H](O)[C@@H](O)[C@@H]2O)nc(Cc2ccccc2)c1Cc1ccccc1 (stereo partly drawn) [compound 186]
IC50 (HBV): 200 nM

O=C(CCCCSc1nc(-c2ccc(-c3ccccc3)cc2)cc(=O)[nH]1)NO [compound 195]
outcome in in vivo malaria mouse model (malaria): failed

COc1cc(-c2nc(SCC(=O)c3ccc(Cl)cc3)[nH]c(=O)c2C#N)ccc1OCc1ccccc1 [compound 197]
LC50: HT29 [14]: 10.1 µg/mL (≈ 19.5 µM)
LC50: HePG2 (HePG2 cells): 20.9 µg/mL (≈ 40.3 µM)
LC50: MCF7 (breast cancer MCF7 cells): 1.9 µg/mL (≈ 3.67 µM)

N#Cc1c(-c2c(Cl)cccc2Cl)nc(SCC(=O)c2ccc(Br)cc2)[nH]c1=O [compound 199]
inhibitory effect toward HOP-92 [15]: > 50%

CCc1c(CC2CCCCC2)nc(SCC(=O)Nc2cc(F)cc(F)c2)[nH]c1=O [compound 211]
ZIKV EC50 (Vero cells) (ZIKV): inactive
